Measured values published in US7981926B2, “Fluorotaxoids” (Research Foundation of State University of New York, priority 2005, dated 2011).
Where two headings read alike, the source gives them in different places.

Legend:
MCF7 (mammary carcinoma) = experiment: Tumor growth inhibitory activity (cytotoxicity), SRB method of Skehan et al, MCF7; assay type: cell-based, human; conditions: read-out: IC50 MCF7 (breast)
Description: (§1) The results were obtained according to the methods of Skehan et al (See Skehan et al., J. Nat. Cancer Inst., 82, 1107 (1990)), as more fully described in the Examples. The resistance factor (R/S) shown in the table is a measure of the degree of resistance of a cell line against a taxoid compound. The resistance factor is a ratio of the cytoxicity of a taxoid compound against a drug-resistant cell line (R) as compared to its cytoxicity against a drug-sensitive cell line (S).
(§2) In the tables, lower numbers indicate higher potency (or greater activity). Paclitaxel was used as the standard for comparison. The data represent the mean values of at least three separate experiments.
(§3) Assessment of cell growth inhibition was determined according to the methods of Skehan et al (See Skehan et al., J. Nat. Cancer Inst., 82, 1107 (1990)). Briefly, cells were plated between 400 and 1200 cells/well in 96 well plates and incubated at 37° C. for 15-18 h prior to drug addition to allow attachment of cells. Compounds tested were solubilized in 100% DMSO and further diluted in RPMI-1640 containing 10 mM HEPES. Each cell line was treated with 10 concentrations of compounds (5 log range). After a 72 h incubation, 100 μL of ice-cold 50% TCA was added to each well and incubated for 1 h at 4° C. Plates were then washed 5 times with tap water to remove TCA, low-molecular-weight metabolites and serum proteins. Sulforhodamine B (SRB) (0.4%, 50 μL) was added to each well. Following a 5 minute incubation at room temperature, plates were rinsed 5 times with 0.1% acetic acid and air dried. Bound dye was solubilized with 10 mM Tris Base (pH 10.5) for 5 min on a gyratory shaker. Optical density was measured at 570 nm.
(§4) Data were fit with the Sigmoid-Emax concentration-effect model with non-linear regression, weighted by the reciprocal of the square of the predicted response (see Holford, N. H. G.; Scheiner, L. B., “Understanding the dose-effect relationship: Clinical applications of pharmaco-kinetic-pharmacodynamic models,” Clin. Pharmacokin., 6, 429-453 (1981)). The fitting software was developed by the Roswell Park Cancer Institute with Microsoft FORTRAN, and uses the Marquardt algorithm (see Marquardt, D. W., “An algorithm for least squares estimation of nonlinear parameters,” J. Soc. Ind. Appl. Math., 11, 431-441 (1963)) as adopted by Nash for the non-linear regression (see Nash, J. C., “Compact numerical method for computers: Linear algebra and function minimization,” John Wiley & Sons, New York, 1979).

[1] = tested on: MCF7-R (mammary carcinoma cells 250-fold resistant to paclitaxel); experiment: Tumor growth inhibitory activity (cytotoxicity), SRB method of Skehan et al, MCF7-R; assay type: cell-based, human; conditions: for IC50: read-out: IC50 MCF7-R (breast); for R/S (resistance factor): ratio of cytotoxicity against drug-resistant MCF7-R (R) to drug-sensitive MCF7 (S)
Description: as §1, §2, §3, §4

[2] = Homo sapiens, MCF7, 72 h drug exposure, SRB, mean of at least three separate experiments
[3] = Homo sapiens, MCF7R, drug-resistant cell line, 72 h drug exposure, SRB, mean of at least three separate experiments

SMILES | melting point | IC50 (MCF7 (mammary carcinoma); [2]) | IC50 [1, 3] | R/S (resistance factor) [1] | IC50 (MCF7 (mammary carcinoma); Homo sapiens, MCF7, 72 h) | IC50 ([1]; Homo sapiens, MCF7R, 72 h) | IC50 (MCF7 (mammary carcinoma); 72 h drug exposure, SRB, mean of at least three separate experiments) | IC50 ([1]; drug-resistant cell line, 72 h drug exposure, SRB, mean of at least three separate experiments)
CCC(=O)O[C@H]1C(=O)[C@@]2(C)C([C@H](OC(=O)c3ccccc3)[C@]3(O)C[C@H](OC(=O)[C@H](O)[C@H](C=C(F)F)NC(=O)OC(C)(C)C)C(C)=C1C3(C)C)[C@]1(OC(C)=O)CO[C@@H]1C[C@@H]2O (stereo partly shown) [SB-T-12853, 3′-Dephenyl-3′-(2,2-difluorovinyl)-10-propanoyl-docetaxel] | 175 to 181 °C | 0.12 nM | 1.2 nM | 10 | – | – | – | –
CC(=O)O[C@@]12CO[C@@H]1C[C@H](O)[C@@]1(C)C(=O)[C@H](OC(=O)N(C)C)C3=C(C)[C@@H](OC(=O)[C@H](O)[C@H](C=C(F)F)NC(=O)OC(C)(C)C)C[C@@](O)([C@@H](OC(=O)c4ccccc4)C12)C3(C)C (stereo partly shown) [SB-T-12854, 3′-Dephenyl-3′-(2,2-difluorovinyl)-10-dimethylcarbamoyldocetaxel] | 166 to 170 °C | – | – | 33 | 0.13 nM | 4.27 nM | – | –
CC(=O)O[C@H]1C(=O)[C@@]2(C)C([C@H](OC(=O)c3ccccc3)[C@]3(O)C[C@H](OC(=O)[C@H](O)[C@H](C=C(F)F)NC(=O)OC(C)(C)C)C(C)=C1C3(C)C)[C@]1(OC(C)=O)CO[C@@H]1C[C@@H]2O (stereo partly shown) [SB-T-12851, 10-Acetyl-3′-dephenyl-3′-(2,2-difluorovinyl)docetaxel] | 155 to 160 °C | 0.099 nM | 0.95 nM | 9.6 | – | – | – | –
CC(=O)O[C@@]12CO[C@@H]1C[C@H](O)[C@@]1(C)C(=O)[C@H](OC(=O)N(C)C)C3=C(C)[C@@H](OC(=O)[C@H](O)[C@H](C=C(F)F)NC(=O)OC(C)(C)C)C[C@@](O)([C@@H](OC(=O)c4cccc(Cl)c4)C12)C3(C)C (stereo partly shown) [SB-T-12854-4, 3′-Dephenyl-3′-(2,2-difluorovinyl)-2-debenzoyl-2-(3-chlorobenzoyl)-10-dimethylcarbamoyldocetaxel] | – | – | – | 2.8 | 0.93 nM | 2.6 nM | – | –
COC(=O)O[C@H]1C(=O)[C@@]2(C)C([C@H](OC(=O)c3cccc(N=[N+]=[N-])c3)[C@]3(O)C[C@H](OC(=O)[C@H](O)[C@H](C=C(F)F)NC(=O)OC(C)(C)C)C(C)=C1C3(C)C)[C@]1(OC(C)=O)CO[C@@H]1C[C@@H]2O (stereo partly shown) [SB-T-12855-3, 3′-Dephenyl-3′-(2,2-difluorovinyl)-2-debenzoyl-2-(3-azidobenzoyl)-10-methoxycarbonyldocetaxel] | – | 0.076 nM | 0.4 nM | 5.3 | – | – | – | –
COC(=O)O[C@H]1C(=O)[C@@]2(C)C([C@H](OC(=O)c3ccccc3)[C@]3(O)C[C@H](OC(=O)[C@H](O)[C@H](C=C(F)F)NC(=O)OC(C)(C)C)C(C)=C1C3(C)C)[C@]1(OC(C)=O)CO[C@@H]1C[C@@H]2O (stereo partly shown) [SB-T-12855, 3′-Dephenyl-3′-(2,2-difluorovinyl)-10-methoxycarbonyldocetaxel] | 144 to 148 °C | 0.14 nM | 1.29 nM | 9.2 | – | – | – | –
CC(=O)OC12COC1CC(O)C1(C)C(=O)C(OC(=O)C3CC3)C3=C(C)C(OC(=O)C(O)C(C=C(F)F)NC(=O)OC(C)(C)C)CC(O)(C(OC(=O)c4cccc(F)c4)C21)C3(C)C (stereo not shown) [SB-T-12852-2, 3′-Dephenyl-3′-(2,2-difluorovinyl)-2-debenzoyl-2-(3-fluorobenzoyl)-10-cyclopropanecarbonyldocetaxel] | – | – | – | 23 | – | – | 0.076 nM | 1.72 nM
CC(=O)O[C@H]1C(=O)[C@@]2(C)C([C@H](OC(=O)c3cccc(F)c3)[C@]3(O)C[C@H](OC(=O)[C@H](O)[C@H](C=C(F)F)NC(=O)OC(C)(C)C)C(C)=C1C3(C)C)[C@]1(OC(C)=O)CO[C@@H]1C[C@@H]2O (stereo partly shown) [SB-T-12851-2, 3′-Dephenyl-3′-(2,2-difluorovinyl)-2-debenzoyl-2-(3-fluorobenzoyl)-10-acetyldocetaxel] | – | 0.13 nM | 1.53 nM | 12 | – | – | – | –
CCC(=O)O[C@H]1C(=O)[C@@]2(C)C([C@H](OC(=O)c3cccc(OC)c3)[C@]3(O)C[C@H](OC(=O)[C@H](O)[C@H](C=C(F)F)NC(=O)OC(C)(C)C)C(C)=C1C3(C)C)[C@]1(OC(C)=O)CO[C@@H]1C[C@@H]2O (stereo partly shown) [SB-T-12853-1, 3′-Dephenyl-3′-(2,2-difluorovinyl)-2-debenzoyl-2-(3-methoxybenzoyl)-10-propanoyldocetaxel] | – | 0.34 nM | 0.57 nM | 1.7 | – | – | – | –
COc1cccc(C(=O)O[C@H]2C3[C@](C)(C(=O)[C@H](OC(C)=O)C4=C(C)[C@@H](OC(=O)[C@H](O)[C@H](C=C(F)F)NC(=O)OC(C)(C)C)C[C@]2(O)C4(C)C)[C@@H](O)C[C@H]2OC[C@@]32OC(C)=O)c1 (stereo partly shown) [SB-T-12851-1, 3′-Dephenyl-3′-(2,2-difluorovinyl)-2-debenzoyl-2-(3-methoxybenzoyl)-10-acetyldocetaxel] | – | 0.25 nM | 1.5 nM | 6.0 | – | – | – | –
